Target: T1, human PEPT2 (Homo sapiens, UniProt Q16348)
T1 sequence (Q16348 1-729): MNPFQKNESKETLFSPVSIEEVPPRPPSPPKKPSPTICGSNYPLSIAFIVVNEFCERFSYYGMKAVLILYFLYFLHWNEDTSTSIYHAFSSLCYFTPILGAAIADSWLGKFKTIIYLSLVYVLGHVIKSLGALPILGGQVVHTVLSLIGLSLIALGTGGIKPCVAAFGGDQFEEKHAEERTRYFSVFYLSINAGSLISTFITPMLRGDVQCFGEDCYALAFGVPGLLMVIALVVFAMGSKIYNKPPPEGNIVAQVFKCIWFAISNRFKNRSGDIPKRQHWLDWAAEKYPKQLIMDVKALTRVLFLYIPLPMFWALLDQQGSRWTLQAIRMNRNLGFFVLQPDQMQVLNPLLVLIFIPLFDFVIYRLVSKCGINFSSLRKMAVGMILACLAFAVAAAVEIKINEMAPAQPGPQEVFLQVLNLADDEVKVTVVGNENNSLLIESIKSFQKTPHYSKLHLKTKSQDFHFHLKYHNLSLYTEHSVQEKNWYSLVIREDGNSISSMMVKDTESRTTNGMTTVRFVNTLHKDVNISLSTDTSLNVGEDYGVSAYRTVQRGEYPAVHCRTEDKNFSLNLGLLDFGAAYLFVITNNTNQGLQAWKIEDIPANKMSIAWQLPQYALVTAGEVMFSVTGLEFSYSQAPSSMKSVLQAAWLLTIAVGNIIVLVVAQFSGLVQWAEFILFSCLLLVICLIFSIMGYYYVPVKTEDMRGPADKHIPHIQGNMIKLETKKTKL
Experiment: SLC transporter substrate assay, CHO-K1-PEPT2 vs control CHO-K1 cells
Conditions: 20 min; for Max. transporter-specific fold accumulation, without inhibitor / Max. transporter-specific fold accumulation, with inhibitor: 0.3 µM; for Max. transporter-specific fold accumulation, with inhibitor: Cefadroxil
Method: The described cells were plated onto standard 24-well tissue culture plates at densities of 5 × 10^5 cells/well. […] Before starting the experiment, the cells were prepared by removing the medium and washing the cells twice with 300 µL of assay buffer. […] The cells were lysed by adding 300 µL of 0.1N NaOH, they were incubated for 10 min at 37 °C and 100 µL samples were taken from all the wells.
The amount of protein in each well was quantified using the BCA kit for protein determination (Sigma-Aldrich, St Louis, MO, USA). Positive controls were performed using a separate 96-well plate format according to Table S8 in SI4.
SI4. Results of transporter substrate assays (SLC)
Table S8: Parameters of positive controls, control cell lines and plating for SLC transporters assays.
KH: Krebs-Henseleit buffer, HBSS: Hank's balanced salt solution, MES: 2 -(N-morpholino) ethanesulfonic acid, cGMP:
Guanosine cyclic phosphate, E3S: Estrone -3-sulfate, Gly-Sar: Glycylsarcosine, MPP+: 1-methyl-4-phenylpyridinium.
Calculation of fold accumulation values for SLC transporter substrate assays The fold accumulation value was defined as the ratio of uptake of the test substance (TS) or probe substrate into transfected and control cells. If the fold accumulation is > 2 and can be inhibited by a known inhibitor of the transporter, the test substance can be considered as a substrate of the respective transporter.
Fold accumulation = UPTTRP
• UPTTRP: accumulated amount of test substance (TS) or probe substrate in transfected cells normalized by protein content […]
• UPTCTRL: accumulated amount of test substance (TS) or probe substrate in control cells normalized by protein content […]
Positive control conducted at pH 5.0.
Gly-Sar: Glycylsarcosine.

[1] = pH 5.0, 0.03 µM nominal + Cefadroxil 200 µM
[2] = pH 5.0, 0.03 µM nominal, no inhibitor
[3] = pH 5.0, 0.30 µM nominal + Cefadroxil 200 µM
[4] = pH 5.0, 0.30 µM nominal, no inhibitor
[5] = pH 6.0, 0.03 µM nominal + Cefadroxil 200 µM
[6] = pH 6.0, 0.03 µM nominal, no inhibitor
[7] = pH 6.0, 0.30 µM nominal + Cefadroxil 200 µM
[8] = pH 6.0, 0.30 µM nominal, no inhibitor

[3H]C(c1ccc2ccccc2c1)C([3H])(NC(=O)C1CCC(CNC(=O)CN2CCN(CC(=O)[O-])CCN(CC(=O)[O-])CCN(CC(=O)[O-])CC2)CC1)C(=O)NCCCCC(NC(=O)NC(CCC(=O)O)C(=O)O)C(=O)O.[Lu+3] (stereo not drawn) [([α,β-^3H]Nal)Lu-PSMA-617]
Uptake via transporter (PEPT2) (pH 5.0 and 6.0, absence and presence of cefadroxil): not taken up
Accumulation in PEPT2 transporter expressing cells [1]: 0.16 ± 0.03 pmol/mg protein
Accumulation in control cells [1]: 0.08 ± 0.00 pmol/mg protein
Accumulation, active transport [1]: 0.08 ± 0.03 pmol/mg protein
Fold accumulation [1]: 1.94
Accumulation in PEPT2 transporter expressing cells [2]: 0.16 ± 0.03 pmol/mg protein
Accumulation in control cells [2]: 0.12 ± 0.01 pmol/mg protein
Accumulation, active transport [2]: 0.04 ± 0.03 pmol/mg protein
Fold accumulation [2]: 1.34
Accumulation in PEPT2 transporter expressing cells [3]: 1.58 ± 0.48 pmol/mg protein
Accumulation in control cells [3]: 0.70 ± 0.12 pmol/mg protein
Accumulation, active transport [3]: 0.88 ± 0.50 pmol/mg protein
Fold accumulation [3]: 2.27
Accumulation in PEPT2 transporter expressing cells [4]: 1.70 ± 0.50 pmol/mg protein
Accumulation in control cells [4]: 0.87 ± 0.16 pmol/mg protein
Accumulation, active transport [4]: 0.83 ± 0.53 pmol/mg protein
Fold accumulation [4]: 1.95
Max. transporter-specific fold accumulation, without inhibitor (pH 5.0): 1.95
Max. transporter-specific fold accumulation, with inhibitor (pH 5.0): 2.27
Accumulation in PEPT2 transporter expressing cells [5]: 0.17 ± 0.05 pmol/mg protein
Accumulation in control cells [5]: 0.08 ± 0.01 pmol/mg protein
Accumulation, active transport [5]: 0.09 ± 0.05 pmol/mg protein
Fold accumulation [5]: 2.21
Accumulation in PEPT2 transporter expressing cells [6]: 0.15 ± 0.05 pmol/mg protein
Accumulation in control cells [6]: 0.10 ± 0.04 pmol/mg protein
Accumulation, active transport [6]: 0.06 ± 0.06 pmol/mg protein
Fold accumulation [6]: 1.57
Accumulation in PEPT2 transporter expressing cells [7]: 1.57 ± 0.55 pmol/mg protein
Accumulation in control cells [7]: 0.70 ± 0.16 pmol/mg protein
Accumulation, active transport [7]: 0.88 ± 0.58 pmol/mg protein
Fold accumulation [7]: 2.26
Accumulation in PEPT2 transporter expressing cells [8]: 1.57 ± 0.45 pmol/mg protein
Accumulation in control cells [8]: 0.87 ± 0.07 pmol/mg protein
Accumulation, active transport [8]: 0.70 ± 0.45 pmol/mg protein
Fold accumulation [8]: 1.81
Max. transporter-specific fold accumulation, without inhibitor (pH 6.0): 1.81
Max. transporter-specific fold accumulation, with inhibitor (pH 6.0): 2.26

Source: paper PMC11053447, “Human ABC and SLC Transporters: The Culprit Responsible for Unspecific PSMA-617 Uptake?” (Pharmaceuticals, 2024)
